Measured values published in patent US8138188B2, “Melanocortin type 4 receptor agonist piperidinoylpyrrolidines” (Pfizer Inc., priority 2006, dated 2012).

experiment: In vitro metabolism rate determination, rat liver microsome (RLM) assay; assay type: in vitro ADME; settings: rat liver microsomes, substrate 1 μM; read-out: RLM (intrinsic clearance)
Description: In vitro Metabolism Rate Determination (Human Liver Microsome (HLM); Rat Liver Microsome (RLM) Assay)
Many drugs are metabolised by the cytochrome P450 mono-oxygenase system. This enzyme is found in high concentrations in the liver and is bound to the endoplasmic reticulum of the hepatocyte. The enzyme system can be obtained in semi-purified state by the preparation of the hepatic microsomal fractions. Determining a compound's in vitro half-life in such a system provides a useful indicator of metabolic stability.
Methodology For In Vitro Rate Determination Using Hepatic & Supermix Microsomes
The method outlined below is for a total incubation volume of 1.5 ml.
1. The following mixture is prepared in a test tube:
2. Defrost microsomes at room temperature and add sufficient microsomes to give a final concentration of 0.5 nmol cytochrome P450/ml of incubation e.g. for a 1.5 ml incubation, the volume of microsomes to be added is:
[formula] 3. Add sufficient MilliQ water to give a total incubation volume of 1.425 ml. 4. Remove 237.5 μl of incubation mix and place in test tube for PNA positive control. Add 2.5 μl of PNA solution, whirlimix, and put tube into a rack in the thermostatically controlled shaking water bath 5. Remove 100 μl for no substrate control and dispense in test tube. Place test tube in a rack in the thermostatically controlled shaking water bath. 6. Add substrate to the incubation. The substrate should be at an initial concentration of 1 μM. The volume of substrate required in the remaining 1.162.5 ml incubation is calculated as follows:
[formula] • N.B. The volume of organic solvent added should not exceed 0.1% of the total incubation volume. 7. Remove 100 μl of incubation mix into test tube for no cofactor control. Whirlimix and put into a rack in the thermostatically controlled shaking water bath. 8. Pre-incubate the tube containing the incubation mix, also positive control and no cofactor tubes in the thermostatically controlled shaking water bath set at 37° C. for approx 5 min. 9. Add NADP to initiate reaction (75 μl to each 1.162.5 ml incubation mix, 12.5 μl to positive control tube and 5 μl to no substrate tube) and take first time point immediately. The PNA positive control, no cofactor control and no substrate tubes are incubated for the total incubation time. 10. Remove 100 μl aliquots up to 9 different sampling points from 0 to 60 min (usually 0, 3, 5, 10, 15, 20, 30, 45 & 60 min) and terminate reaction. Longer incubation times can be used, but, after 120 min the microsomes deteriorate. The reaction may be terminated by addition of organic solvent, acid or base. At the end of the incubation process the no cofactor and no substrate controls in a similar manner i.e. terminate with the same reagent. 11. PNA Positive Control Procedure: • After the final sample has been taken, remove the positive control and add 1 ml 20% TCA to this tube. Also prepare a tube containing 250 μl of a PNP standard at 50 μM, and add 1 ml 20% TCA. Whirlimix both tubes and leave for approx 5 min to allow the protein to precipitate. • Centrifuge both tubes for approx 5 min in an instrument set at 3500 rpm. Remove 1 ml of supernatant and place into clean test tubes, discard the remainder. • Add 1 ml 10M NaOH to the supernatant, whirlimix, and leave to stand for approx min. Blank spectrophotometer with distilled water at 400 nm then measure absorbance of the PNP standard against distilled water. The microsomal 4-nitroanisole O-demethylase activity is calculated as follows: Calculation of Results
[formula] • The activity value from the incubation MUST be equal to or greater than 85% of the mean value of the batch used for the incubation to be valid. If this criteria is not met, then the incubation must be repeated. 11. Analyse samples (including no cofactor and no substrate control) by a specific assay for the substrate to determine the disappearance kinetics. Analysis Of Data […]

With `C[C@@H]1CN(C(=O)[C@@H]2CN(c3ccc(C#N)cn3)C[C@H]2c2ccc(Cl)cn2)C[C@H](C)[C@@]1(O)c1ccc(F)cc1` [Example 1, 6-[(3S,4S)-3-(5-Chloropyridin-2-yl)-4-{[(3R,4R,5S)-4-(4-fluorophenyl)-4-hydroxy-3,5-dimethylpiperidin-1-yl]carbonyl}pyrrolidin-1-yl]nicotinonitrile] as the compound, how does the microsomal CLint at 1 μM read?
Its microsomal CLint at 1 μM is less than 8.5 µL/min/mg.

Which microsomal CLint at 1 μM does the source give for `COc1ccc(N2C[C@@H](C(=O)N3C[C@@H](C)[C@](O)(c4ccc(F)cc4)[C@@H](C)C3)[C@H](c3ccc(Cl)cn3)C2)nn1` [Example 4, (3R,4R,5S)-1-{[(3S,4S)-4-(5-chloropyridin-2-yl)-1-(6-methoxypyridazin-3-yl)pyrrolidin-3-yl]carbonyl}-4-(4-fluorophenyl)-3,5-dimethylpiperidin-4-ol] here?
Its microsomal CLint at 1 μM is 74 µL/min/mg.

Which microsomal CLint at 1 μM does the source give for `C[C@@H]1CN(C(=O)[C@@H]2CN(c3ccc(Cl)nn3)C[C@H]2c2ccc(F)cn2)C[C@H](C)[C@@]1(O)c1ccc(Cl)cc1` [Example 5, (3R,4R,5S)-4-(4-chlorophenyl)-1-{[(3S,4S)-1-(6-chloropyridazin-3-yl)-4-(5-fluoropyridin-2-yl)pyrrolidin-3-yl]carbonyl}-3,5-dimethylpiperidin-4-ol] here?
Its microsomal CLint at 1 μM is 27 µL/min/mg.

Which microsomal CLint at 1 μM does the source give for `C[C@@H]1CN(C(=O)[C@@H]2CN(c3ccc(=O)[nH]n3)C[C@H]2c2ccc(F)cn2)C[C@H](C)[C@@]1(O)c1ccc(Cl)cc1` [Example 6, 6-[(3S,4S)-3-{[(3R,4R,5S)-4-(4-chlorophenyl)-4-hydroxy-3,5-dimethylpiperidin-1-yl]carbonyl}-4-(5-fluoropyridin-2-yl)pyrrolidin-1-yl]pyridazin-3(2H)-one] here?
Its microsomal CLint at 1 μM is less than 8.5 µL/min/mg.

Which microsomal CLint at 1 μM does the source give for `C[C@@H]1CN(C(=O)[C@@H]2CN(c3ccc(=O)n(C)n3)C[C@H]2c2ccc(F)cn2)C[C@H](C)[C@@]1(O)c1ccc(Cl)cc1` [Example 7, 6-[(3S,4S)-3-{[(3R,4R,5S)-4-(4-chlorophenyl)-4-hydroxy-3,5-dimethylpiperidin-1-yl]carbonyl}-4-(5-fluoropyridin-2-yl)pyrrolidin-1-yl]-2-methylpyridazin-3(2H)-one] here?
The microsomal CLint at 1 μM was 11 µL/min/mg.

With `C[C@@H]1CN(C(=O)[C@@H]2CN(c3cncc(F)c3)C[C@H]2c2ccc(Cl)cn2)C[C@H](C)[C@@]1(O)c1ccccn1` [Example 8, (3R,4R,5S)-1-{[(3S,4S)-4-(5-chloropyridin-2-yl)-1-(5-fluoropyridin-3-yl)pyrrolidin-3-yl]carbonyl}-3,5-dimethyl-4-pyridin-2-ylpiperidin-4-ol] as the compound, how does the microsomal CLint at 1 μM read?
The microsomal CLint at 1 μM was greater than 510 µL/min/mg.

Which microsomal CLint at 1 μM does the source give for `C[C@@H]1CN(C(=O)[C@@H]2CN(c3cccnn3)C[C@H]2c2ccc(Cl)cn2)C[C@H](C)[C@@]1(O)c1ccccn1` [Example 9, (3R,4R,5S)-1-{[(3S,4S)-4-(5-chloropyridin-2-yl)-1-pyridazin-3-ylpyrrolidin-3-yl]carbonyl}-3,5-dimethyl-4-pyridin-2-ylpiperidin-4-ol] here?
The microsomal CLint at 1 μM was 411 µL/min/mg.

Which microsomal CLint at 1 μM does the source give for `COc1ccc(C2CN(c3ccc(C#N)nn3)CC2C(=O)N2CC(C)C(O)(c3ccc(F)cc3)C(C)C2)cn1` (centres unmarked) [Example 16] here?
The microsomal CLint at 1 μM was less than 8.5 µL/min/mg.

With `C[C@@H]1CN(C(=O)[C@@H]2CN(c3ccc(=O)n(C)n3)C[C@H]2c2ccc(Cl)cn2)C[C@H](C)[C@@]1(O)C1CC1` [Example 18] as the compound, how does the microsomal CLint at 1 μM read?
The microsomal CLint at 1 μM was 68 µL/min/mg.

Which microsomal CLint at 1 μM does the source give for `CC1CN(C(=O)C2CN(c3ccc(=O)n(C)n3)CC2c2ccc(Cl)cn2)CC(C)C1(O)c1ccccc1` (centres unmarked) [Example 21] here?
The microsomal CLint at 1 μM was 58.5 µL/min/mg.

With `C[C@@H]1CN(C(=O)[C@@H]2CN(c3ccc(=O)n(C)n3)C[C@H]2c2ccc(Cl)cn2)C[C@H](C)[C@@]1(O)c1ccccn1` [Example 22] as the compound, how does the microsomal CLint at 1 μM read?
The microsomal CLint at 1 μM was 96 µL/min/mg.

Which microsomal CLint at 1 μM does the source give for `CC1CN(C(=O)C2CN(c3cncc(F)c3)CC2c2ccc(Cl)cn2)CC(C)C1(O)C1CC1` (centres unmarked) [Example 24] here?
The microsomal CLint at 1 μM was greater than 510 µL/min/mg.

Which microsomal CLint at 1 μM does the source give for `COc1ccc(N2CC(C(=O)N3CC(C)C(O)(C4CC4)C(C)C3)C(c3ccc(Cl)cn3)C2)nn1` (centres unmarked) [Example 26] here?
The microsomal CLint at 1 μM was greater than 510 µL/min/mg.

Which microsomal CLint at 1 μM does the source give for `CC1CN(C(=O)C2CN(c3ccc(=O)[nH]n3)CC2c2ccc(Cl)cn2)CC(C)C1(O)c1ccccc1` (centres unmarked) [Example 27] here?
The microsomal CLint at 1 μM was 31 µL/min/mg.

Which microsomal CLint at 1 μM does the source give for `C[C@@H]1CN(C(=O)[C@@H]2CN(c3ccc(=O)[nH]n3)C[C@H]2c2ccc(Cl)cn2)C[C@H](C)[C@@]1(O)c1ccccn1` [Example 28] here?
The microsomal CLint at 1 μM was 51 µL/min/mg.

Which microsomal CLint at 1 μM does the source give for `CC1CN(C(=O)C2CN(c3ccc(C#N)nn3)CC2c2ccc(Cl)cn2)CC(C)C1(O)c1ccccn1` (centres unmarked) [Example 30] here?
The microsomal CLint at 1 μM was 69.5 µL/min/mg.

For `C[C@@H]1CN(C(=O)[C@@H]2CN(c3ccc(Cl)nn3)C[C@H]2c2ccc(Cl)cn2)C[C@H](C)[C@@]1(O)c1ccccn1` [Example 31], which microsomal CLint at 1 μM is on record?
The microsomal CLint at 1 μM was 292 µL/min/mg.

For `CC1CN(C(=O)C2CN(c3ccc(C#N)nn3)CC2c2ccc(F)cn2)CC(C)C1(O)c1ccccc1` (centres unmarked) [Example 33], which microsomal CLint at 1 μM is on record?
The microsomal CLint at 1 μM was 72 µL/min/mg.

For `C[C@@H]1CN(C(=O)[C@@H]2CN(c3ccc(Cl)nn3)C[C@H]2c2ccc(F)cn2)C[C@H](C)[C@@]1(O)c1ccccc1` [Example 35], which microsomal CLint at 1 μM is on record?
The microsomal CLint at 1 μM was 92 µL/min/mg.

With `CC1CN(C(=O)C2CN(c3ccc(=O)[nH]n3)CC2c2ccc(F)cn2)CC(C)C1(O)c1ccccc1` (centres unmarked) [Example 37] as the compound, how does the microsomal CLint at 1 μM read?
Its microsomal CLint at 1 μM is 23 µL/min/mg.

Which microsomal CLint at 1 μM does the source give for `CC1CN(C(=O)C2CN(c3ccc(=O)n(C)n3)CC2c2ccc(F)cn2)CC(C)C1(O)c1ccccc1` (centres unmarked) [Example 39] here?
Its microsomal CLint at 1 μM is 58 µL/min/mg.

With `CC1CN(C(=O)C2CN(c3ccc(=O)n(C)n3)CC2c2ccc(F)cn2)CC(C)C1(O)c1ccc(F)cc1` (centres unmarked) [Example 40] as the compound, how does the microsomal CLint at 1 μM read?
The microsomal CLint at 1 μM was less than 8.5 µL/min/mg.

Which microsomal CLint at 1 μM does the source give for `COc1ccc([C@@H]2CN(c3ccc(=O)[nH]n3)C[C@H]2C(=O)N2C[C@@H](C)[C@](O)(c3ccc(Cl)cn3)[C@@H](C)C2)nc1` [Example 41] here?
Its microsomal CLint at 1 μM is 30 µL/min/mg.

Which microsomal CLint at 1 μM does the source give for `COc1ccc(C2CN(c3ccc(=O)[nH]n3)CC2C(=O)N2CC(C)C(O)(c3ccc(F)cc3)C(C)C2)nc1` (centres unmarked) [Example 42] here?
Its microsomal CLint at 1 μM is 25 µL/min/mg.

For `CC1CN(C(=O)C2CN(c3ccc(C#N)cn3)CC2c2ccc(C#N)cn2)CC(C)C1(O)c1ccc(F)cc1` (centres unmarked) [Example 45], which microsomal CLint at 1 μM is on record?
Its microsomal CLint at 1 μM is less than 8.5 µL/min/mg.

For `C[C@@H]1CN(C(=O)[C@@H]2CN(c3ccc(C#N)nn3)C[C@H]2c2ccc(C#N)cn2)C[C@H](C)[C@@]1(O)c1ccc(F)cc1` [Example 46], which microsomal CLint at 1 μM is on record?
Its microsomal CLint at 1 μM is less than 8.5 µL/min/mg.
